Data published in US11518740B2, “Pleuromutilin (phenylthio)acetic acid ester with anti-drug resistant bacteria activity and a method of preparing the same” (SHAANXI UNIVERSITY OF SCIENCE AND TECHNOLOGY, priority 2021, dated 2022).

Columns and labels:
Assay type in all cases: cell-based
[1] = system: multi-resistant Staphylococcus aureus 222; assay: Paper diffusion method drug sensitivity test, MRSA-222; conditions: for inhibitory effect (in words): multi-drug resistant Staphylococcus aureus 222, summary of FIGS. 1-3 and Table 1; for Zone of inhibition: strain MRSA-222, drug sensitive paper 30 μg/tablet, 37° C., 24 h
Procedure: (§1) The antimicrobial efficacy was determined by a paper diffusion method drug sensitivity test.
(§2) Experimental strains: multi-resistant Staphylococcus aureus 171, multi-resistant Staphylococcus aureus 222, multi-resistant Staphylococcus aureus 596. The experimental strains were identified by Huashan Hospital Affiliated to Fudan University (Institute of Antibiotic of Fudan University).
(§3) Drug sensitive paper: The drug sensitive paper is a special drug sensitive paper with a diameter of 6.35 mm and a water absorption of 0.02 mL. The control drug was vancomycin (30 μg/tablet); the test drugs were pleuromutilin (phenylithio)acetic acid ester (30 μg/tablet).
(§4) Reagents: LB agar medium, LA broth medium, dichloromethane.
(§5) The experimental strains were inoculated in non-selective medium and placed in air at 37° C. for 24 h. Pick a single colony that grows well and inoculate it into broth medium, incubate at 35° C.±2° C. for 6 hours, and use LA broth medium to calibrate the concentration of the bacterial solution to 0.5 Mie turbidimetric tube (1.5×10^8 CFU/mL). A bacterial suspension is obtained.
as §5, with “([…]” for “(1.5×10^8”
(§6) LB dry powder was weighed, sterilized at 103.4 Kpa, 121.3° C. high-pressure steam for 15 min, and then placed it in a 40° C.-50° C. water bath. A sterile empty plate (inner diameter 9 cm) was placed on the surface of the ultra-clean table water table, and […] to the plate. The thickness of each plate was 3 mm to 4 mm. After the plate was cooled at room temperature, it was stored in the refrigerator at 2° C.-8° C. A sterile cotton swab was used to dip the bacterial solution and to evenly coat the surface of the LB plate 3 times. After inoculation of the bacterial suspension, the LB plate was dried at room temperature for 3 min to 5 min. Sterile forceps were used to closely attach the antibacterial drug paper to the dish. The dish was put upside down and placed in a 37° C. incubator for 24 h. The results were observed by measuring the diameter. Taking 0.5% DMSO solution as a negative control, the antibacterial activity is expressed by the diameter of the inhibition zone. The inhibition zone≥17 mm, sensitive; the inhibition zone of 15 mm-16 mm, intermediary; the inhibition zone≤14 mm, drug resistance.

[2] = system: multi-resistant Staphylococcus aureus 596; assay: Paper diffusion method drug sensitivity test, MRSA-596; conditions: for inhibitory effect (in words): multi-drug resistant Staphylococcus aureus 596, summary of FIGS. 1-3 and Table 1; for Zone of inhibition: strain MRSA-596, drug sensitive paper 30 μg/tablet, 37° C., 24 h
Procedure: as §1, §2, §3, §4, §5
as §5, with “([…]” for “(1.5×10^8”
as §6

[3] = system: multi-resistant Staphylococcus aureus 171; assay: Paper diffusion method drug sensitivity test, MRSA-171; conditions: for inhibitory effect (in words): multi-drug resistant Staphylococcus aureus 171, summary of FIGS. 1-3 and Table 1; for Zone of inhibition: strain MRSA-171, drug sensitive paper 30 μg/tablet, 37° C., 24 h
Procedure: as §1, §2, §3, §4, §5
as §5, with “([…]” for “(1.5×10^8”
as §6

C=C[C@]1(C)CC(OC(=O)COC(=O)CSc2ccccc2)[C@]2(C)[C@H](C)CC[C@]3(CCC(=O)[C@H]32)[C@@H](C)[C@@H]1O (some centres unmarked)
inhibitory effect (in words) [1]: strong inhibitory effects | Zone of inhibition [1]: 15 mm | inhibitory effect (in words) [2]: strong inhibitory effects | Zone of inhibition [2]: 23 mm | inhibitory effect (in words) [3]: strong inhibitory effects

O=C(O)CSc1ccccc1 [(Phenylithio)acetic acid]
inhibitory effect (in words) [1]: no inhibitory effect | Zone of inhibition [1]: 0 mm | inhibitory effect (in words) [2]: no inhibitory effect | Zone of inhibition [2]: 0 mm | inhibitory effect (in words) [3]: no inhibitory effect | Zone of inhibition [3]: 0 mm

C=C[C@]1(C)C[C@@H](OC(=O)CO)[C@]2(C)[C@H](C)CC[C@]3(CCC(=O)[C@H]32)[C@@H](C)[C@@H]1O [Pleuromutilin]
inhibitory effect (in words) [1]: no inhibitory effect | Zone of inhibition [1]: 0 mm | inhibitory effect (in words) [2]: no inhibitory effect | Zone of inhibition [2]: 0 mm | inhibitory effect (in words) [3]: no inhibitory effect | Zone of inhibition [3]: 0 mm

CN[C@H](CC(C)C)C(=O)N[C@H]1C(=O)N[C@@H](CC(N)=O)C(=O)N[C@H]2C(=O)N[C@H]3C(=O)N[C@H](C(=O)N[C@H](C(=O)O)c4cc(O)cc(O)c4-c4cc3ccc4O)[C@H](O)c3ccc(c(Cl)c3)Oc3cc2cc(c3O[C@@H]2O[C@H](CO)[C@@H](O)[C@H](O)[C@H]2O[C@H]2C[C@](C)(N)[C@H](O)[C@H](C)O2)Oc2ccc(cc2Cl)[C@H]1O [Vancomycin]
Zone of inhibition [1]: 18 mm | Zone of inhibition [2]: 21 mm | Zone of inhibition [3]: 17 mm
